In patent US9493464B2, “Wee1 degradation inhibitors” (The Scripps Research Institute, priority 2012, dated 2016):
“And” between values parts separate entries of the source, which are not always exact repeats. Equal entries are not always repeated.

How the values were obtained:
CK1δ = CK1δ (Homo sapiens, UniProt P48730); assay: In vitro kinase assay, CK1d, 32P-ATP filter binding (Reaction Biology Corporation); type: biochemical; details: footnote a: determined by Reaction Biology Corporation; read-out: IC50 CK1d
Experimental: (§1) Compounds were tested in 10-dose IC50 mode with 3-fold serial dilution starting at 50 μM. […] Reactions were carried out at 10 μM ATP. Average and standard deviations of reactions carried out in triplicate are shown.
(§2) In vitro kinase assay to detect CK1 or FLT3 activity: CK1 and FLT3 assays as well as complete kinase profile of 296 kinases was performed by Reaction Biology Corporation. For FLT3 20 μM final Abltide was used, sequence: [[…]]. For CK1 (all isoforms) 20 μM CK1 tide was used, sequence: [KRRRAL[pS]VASLPGL] in a standard kinase assay with ^32P-ATP and purified kinase. Incorporation of ^32P-ATP into the peptide was measured after a filter-binding assay. In-house CK1d inhibition assays were performed using a standard homogenous time-resolved fluorescence resonance energy transfer (TR-FRET) format in 50 mM Hepes, pH 7.0, 2.5 mM MgCl2, 0.1 mg/ml bovine serum albumin, 1 mM DL-dithiothreitol, 0.01% Triton X-100 (all from Sigma-Aldrich). Briefly, the CK1δ substrate (DEKTDDE, containing CK1 consensus sequence; 4 μL of a 500 nM stock solution) is labeled with a small Ulight acceptor dye (PerkinElmer). In the presence of 10 μL of 10 nM CK1δ, the Ulight peptide is phosphorylated at a single amino acid that is specifically recognized by a europium chelate (Eu)-labeled phosphospecific antibody. Assays were performed in the presence of 2 μL of compound at different (measured) concentrations, and reactions were stopped by adding 10 μL of 4 nM Eu-anti-p-Topo-IIa (PerkinElmer) in Lance Detection Buffer (Perkin Elmer). Upon excitation of the Eu-labeled antibody, energy is transferred to the acceptor dye resulting in the emission of detected light at 665 nm.

FLT3 = biological target: T1, FLT3 (Homo sapiens, UniProt P36888); assay: In vitro kinase assay, FLT3 (Reaction Biology Corporation); type: biochemical; details: determined by Reaction Biology Corporation; read-out: IC50 FLT3
T1 construct: Reaction Biology Corporation (contract assay)
T1 sequence (P36888 27-993): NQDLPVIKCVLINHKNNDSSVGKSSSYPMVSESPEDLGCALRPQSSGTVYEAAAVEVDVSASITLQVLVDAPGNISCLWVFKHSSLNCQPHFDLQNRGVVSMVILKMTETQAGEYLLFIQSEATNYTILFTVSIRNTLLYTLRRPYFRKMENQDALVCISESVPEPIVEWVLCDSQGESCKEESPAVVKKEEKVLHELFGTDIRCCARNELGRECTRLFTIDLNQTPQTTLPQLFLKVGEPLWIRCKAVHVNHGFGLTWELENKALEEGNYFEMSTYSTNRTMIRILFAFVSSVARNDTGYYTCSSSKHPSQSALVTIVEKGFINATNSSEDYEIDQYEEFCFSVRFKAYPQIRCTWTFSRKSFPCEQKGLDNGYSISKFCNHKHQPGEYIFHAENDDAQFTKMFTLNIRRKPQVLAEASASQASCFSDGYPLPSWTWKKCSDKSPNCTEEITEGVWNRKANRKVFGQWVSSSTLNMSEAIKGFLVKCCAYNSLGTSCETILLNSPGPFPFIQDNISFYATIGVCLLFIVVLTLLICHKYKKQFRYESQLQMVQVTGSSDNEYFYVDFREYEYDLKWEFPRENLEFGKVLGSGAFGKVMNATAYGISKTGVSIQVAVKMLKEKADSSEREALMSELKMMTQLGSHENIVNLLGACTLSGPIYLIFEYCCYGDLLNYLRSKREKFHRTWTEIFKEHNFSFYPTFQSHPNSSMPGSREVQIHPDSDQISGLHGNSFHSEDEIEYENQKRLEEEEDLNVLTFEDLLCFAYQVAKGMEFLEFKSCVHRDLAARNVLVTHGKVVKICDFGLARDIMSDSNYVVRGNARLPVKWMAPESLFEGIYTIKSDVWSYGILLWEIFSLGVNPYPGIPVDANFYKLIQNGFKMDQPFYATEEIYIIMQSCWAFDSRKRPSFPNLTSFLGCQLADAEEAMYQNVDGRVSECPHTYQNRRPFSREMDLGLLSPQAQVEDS
Experimental: as §1, §2

K328M-Wee1-luciferase = assay: Wee1-luciferase assay (stabilization of K328M-Wee1-luciferase); type: cell-based; details: for % Inhibition, Wee1 Degradation: at 250 nM, reported relative to SR-1277 = 100%; for EC50: read-out: Wee1 Stabilization
Excerpt: Steady-state level of K328M-Wee1-Luciferase (K328M-Wee1-Luc) was divided by Luciferase level (Luc) and plotted.
Similar assays have previously been described; PubChem AID 1807.

A498 (renal) = assay: NCI Dose Growth Inhibition assay (NCI-60); type: cell-based; details: Homo sapiens; A498 (renal); read-out: GI50
Experimental: (§3) Table 3, below, illustrates the activity of some of the compounds of the present invention in the National Cancer Institute's Dose Growth Inhibition assay against several human tumor cell lines selected from the NCI-60 panel.
(§4) NCI-60 Cancer Cell Line Screening was performed by the National Cancer Institute, using the procedures described on their website (http://dtp.nci.nih.gov/branches/btb/ivelsp.html)

RXF393 (renal) = assay: NCI Dose Growth Inhibition assay (NCI-60); type: cell-based; details: Homo sapiens, RXF 393; RXF393 (renal); read-out: GI50
Experimental: as §3, §4

COLO 205 (colon) = assay: NCI Dose Growth Inhibition assay (NCI-60); type: cell-based; details: Homo sapiens; COLO 205 (colon); read-out: GI50
Experimental: as §3, §4

SNB-75 (CNS) = assay: NCI Dose Growth Inhibition assay (NCI-60); type: cell-based; details: Homo sapiens; SNB-75 (CNS); read-out: GI50
Experimental: as §3, §4

MDA-MB-468 (breast) = assay: NCI Dose Growth Inhibition assay (NCI-60); type: cell-based; details: Homo sapiens; MDA-MB-468 (breast); read-out: GI50
Experimental: as §3, §4

UACC-62 (melanoma) = assay: NCI Dose Growth Inhibition assay (NCI-60); type: cell-based; details: Homo sapiens; UACC-62 (melanoma); read-out: GI50
Experimental: as §3, §4

Chain of CK1δ (P48730 whole entry): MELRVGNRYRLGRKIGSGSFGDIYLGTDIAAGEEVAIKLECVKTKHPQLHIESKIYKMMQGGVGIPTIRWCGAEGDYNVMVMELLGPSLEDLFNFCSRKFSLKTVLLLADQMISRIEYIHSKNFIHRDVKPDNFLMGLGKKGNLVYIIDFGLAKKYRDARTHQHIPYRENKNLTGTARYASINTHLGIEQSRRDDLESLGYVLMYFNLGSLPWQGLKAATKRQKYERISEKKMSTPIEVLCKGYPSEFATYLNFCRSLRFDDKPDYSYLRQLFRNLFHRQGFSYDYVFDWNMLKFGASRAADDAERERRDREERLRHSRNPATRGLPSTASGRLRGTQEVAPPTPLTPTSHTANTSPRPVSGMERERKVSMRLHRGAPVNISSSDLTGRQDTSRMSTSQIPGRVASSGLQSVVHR

| SMILES | IC50 (CK1δ) | IC50 (FLT3) | % Inhibition, Wee1 Degradation (K328M-Wee1-luciferase) | other results |
| --- | --- | --- | --- | --- |
| FC(F)(F)c1cccc2[nH]c(CNc3nc(N4CCOCC4)nc4c3ncn4-c3ccsc3)nc12 [SR-1272] | 128 nM | 262 nM | 10.8% |  |
| FC(F)(F)c1ccc2[nH]c(CNc3nc(N4CCOCC4)nc4c3ncn4-c3ccsc3)nc2c1 [SR-1273] | 13 nM | 509 nM | 46.3% |  |
| Clc1ccc2[nH]c(CNc3nc(N4CCOCC4)nc4c3ncn4-c3ccsc3)nc2c1 [SR-1274] | 105 nM | 301 nM | 101.2% | EC50 (K328M-Wee1-luciferase): 164 nM |
| Fc1ccc2[nH]c(CNc3nc(N4CCOCC4)nc4c3ncn4-c3ccsc3)nc2c1 [SR-1275] | 50 nM | 79 nM | 81.4% |  |
| N#Cc1ccc2[nH]c(CNc3nc(N4CCOCC4)nc4c3ncn4-c3ccsc3)nc2c1 [SR-1276] | 11 nM | 62 nM | 85.9% |  |
| O=[N+]([O-])c1ccc2[nH]c(CNc3nc(N4CCOCC4)nc4c3ncn4-c3ccsc3)nc2c1 [SR-1278] | 21 nM | 240 nM | 18.7% |  |
| COc1ccc2[nH]c(CNc3nc(N4CCOCC4)nc4c3ncn4-c3ccsc3)nc2c1 [SR-1279] | 17 nM | 14 nM | 79.5% |  |
| c1ccc2cc3[nH]c(CNc4nc(N5CCOCC5)nc5c4ncn5-c4ccsc4)nc3cc2c1 [SR-1280] | 129 nM | 975 nM | 48.3% |  |
| CCOC(=O)c1cccc2[nH]c(CNc3nc(N4CCOCC4)nc4c3ncn4-c3ccsc3)nc12 [SR-1282] | 361 nM | 548 nM | 97.3% | EC50 (K328M-Wee1-luciferase): 207 nM |
| CC(C)n1cnc2c(NCc3nc4c([N+](=O)[O-])cccc4[nH]3)nc(N3CCOCC3)nc21 [SR-1284] | 815 nM | 28000 nM | 111.2% | EC50 (K328M-Wee1-luciferase): 201 nM |
| FC(F)(F)c1cc(Br)c2nc(CNc3nc(N4CCOCC4)nc4c3ncn4-c3ccsc3)[nH]c2c1 [SR-1285] | 522 nM | 4740 nM | 13.4% |  |
| c1ccc2[nH]c(CNc3nc(N4CCNCC4)nc4c3ncn4-c3ccsc3)nc2c1 [SR-1292] | 3 nM | 16 nM | 14.5% |  |
| CN1CCN(c2nc(NCc3nc4ccccc4[nH]3)c3ncn(-c4ccsc4)c3n2)CC1 [SR-1294] | 11 nM | 68 nM | 14.1% |  |
| Cn1c(CNc2nc(N3CCOCC3)nc3c2ncn3-c2ccsc2)nc2ccccc21 [SR-2001] | 22 nM | 125 nM | 1.7% |  |
| O=[N+]([O-])c1cccc2[nH]c(CNc3nc(N4CCOCC4)nc4c3ncn4-c3ccoc3)nc12 [SR-2007] | 18 nM and 19 nM | 345 nM | 81.1% |  |
| c1ccc2[nH]c(CNc3nc(N4CCOCC4)nc4c3ncn4C3CCCC3)nc2c1 [SR-2149] | 46 nM | 401 nM | 6.1% |  |
| O=[N+]([O-])c1cccc2[nH]c(CNc3nc(N4CCOCC4)nc4c3ncn4-c3ccc(F)cc3)nc12 [SR-2362] | 1130 nM |  |  |  |
| CS(=O)(=O)c1ccc2[nH]c(CNc3nc(N4CCOCC4)nc4c3ncn4-c3ccsc3)nc2c1 [SR-2797] | 10 nM | 69 nM |  |  |
| CS(=O)(=O)c1cccc2[nH]c(CNc3nc(N4CCOCC4)nc4c3ncn4-c3ccsc3)nc12 [SR-2805] | 16 nM | 57 nM |  |  |
| COc1ccc2[nH]c(CNc3nc(N4CCN(C)CC4)nc4c3ncn4-c3ccoc3)nc2c1 [SR-2848] | 29 nM | 298 nM |  |  |
| CN1CCN(c2nc(NCc3nc4cc(Cl)ccc4[nH]3)c3ncn(-c4ccoc4)c3n2)CC1 [SR-2849] | 11 nM | 182 nM |  | GI50 (A498 (renal)): 113 nM; GI50 (RXF393 (renal)): 17 nM; GI50 (COLO 205 (colon)): 25 nM; GI50 (SNB-75 (CNS)): 19 nM; GI50 (MDA-MB-468 (breast)): < 10 nM; GI50 (UACC-62 (melanoma)): 130 nM |
| Clc1ccc2[nH]c(CNc3nc(N4CCOCC4)nc4c3ncn4-c3ccoc3)nc2c1 [SR-2850] | 23 nM | 129 nM |  |  |
| CN1CCN(c2nc(NCc3nc4cc(F)ccc4[nH]3)c3ncn(-c4ccoc4)c3n2)CC1 [SR-2866] | 20 nM | 216 nM |  |  |
| Clc1ccc2[nH]c(CNc3nc(N4CCNCC4)nc4c3ncn4-c3ccoc3)nc2c1 [SR-2889] | 5 nM | 82 nM |  | GI50 (A498 (renal)): 24 nM; GI50 (RXF393 (renal)): < 10 nM; GI50 (COLO 205 (colon)): < 10 nM; GI50 (SNB-75 (CNS)): < 10 nM; GI50 (MDA-MB-468 (breast)): < 10 nM; GI50 (UACC-62 (melanoma)): 17 nM |
| Fc1cccc(-n2cnc3c(NCc4nc5cc(Cl)ccc5[nH]4)nc(N4CCNCC4)nc32)c1 [SR-2890] | 4 nM | 809 nM |  | GI50 (A498 (renal)): 207 nM; GI50 (RXF393 (renal)): 41 nM; GI50 (COLO 205 (colon)): 29 nM; GI50 (SNB-75 (CNS)): 46 nM; GI50 (MDA-MB-468 (breast)): 12 nM; GI50 (UACC-62 (melanoma)): 182 nM |
